In patent US20230114728A1 (Venatorx Pharmaceuticals, Inc., priority 2019, published 2023):
Values after ≈ are worked out from the molar mass of the structure shown.

How the values were obtained:
[1] = molecular target: T1, P. aeruginosa PBP3 (Pseudomonas aeruginosa, UniProt G3XD46); assay: Bocillin-FL fluorescence polarization competition binding assay, P. aeruginosa PBP3; conditions: fluorescence polarization competition binding assay using Bocillin-FL
T1 construct: made in house
Procedure, shortened: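 Binding of boronic acid inhibitors to purified Pseudomonas aeruginosa (PA01) PBP3 was measured by fluorescence polarization competition with Bocillin-FL, a fluorescent penicillin V. Reactions of 80 μl contained 0.75 μM PBP3 and 0.1 μM Bocillin-FL in 50 mM Hepes (pH 8.0), 300 mM NaCl and 5% (v/v) glycerol, in black 384-well plates. FP (Excitation 490 nm, Emission 520 nm) was read for up to 60 minutes. EC50 is the concentration that halves PBP-bound Bocillin-FL.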

[2] = test system: E. coli AG100A; assay: Broth microdilution MIC in CAMHB; type: cell-based; conditions: Escherichia coli, read-out: Minimum Inhibitory Concentration, E. coli AG100A
Procedure, shortened: (§1)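 Colonies from cation-adjusted Mueller Hinton agar are grown in broth (3-5 h, 37° C), adjusted by OD600, and added at 2-8×10^5 CFU/mL to 2-fold compound dilutions. After 16-20 h at 37° C, the lowest concentration without growth is taken as MIC.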

[3] = test system: K. pneumoniae SI-117 producing VIM-1; assay: Broth microdilution MIC in CAMHB; type: cell-based; conditions: Klebsiella pneumoniae, read-out: Minimum Inhibitory Concentration, K. pneumoniae SI-117
Procedure, shortened: as §1

[4] = test system: P. aeruginosa ATCC 35151; assay: Broth microdilution MIC in CAMHB; type: cell-based; conditions: Pseudomonas aeruginosa, ATCC35151; MHB; hyper-permeable strain; read-out: Minimum Inhibitory Concentration, P. aeruginosa ATCC 35151
Procedure, shortened: as §1

T1 sequence (G3XD46 whole entry): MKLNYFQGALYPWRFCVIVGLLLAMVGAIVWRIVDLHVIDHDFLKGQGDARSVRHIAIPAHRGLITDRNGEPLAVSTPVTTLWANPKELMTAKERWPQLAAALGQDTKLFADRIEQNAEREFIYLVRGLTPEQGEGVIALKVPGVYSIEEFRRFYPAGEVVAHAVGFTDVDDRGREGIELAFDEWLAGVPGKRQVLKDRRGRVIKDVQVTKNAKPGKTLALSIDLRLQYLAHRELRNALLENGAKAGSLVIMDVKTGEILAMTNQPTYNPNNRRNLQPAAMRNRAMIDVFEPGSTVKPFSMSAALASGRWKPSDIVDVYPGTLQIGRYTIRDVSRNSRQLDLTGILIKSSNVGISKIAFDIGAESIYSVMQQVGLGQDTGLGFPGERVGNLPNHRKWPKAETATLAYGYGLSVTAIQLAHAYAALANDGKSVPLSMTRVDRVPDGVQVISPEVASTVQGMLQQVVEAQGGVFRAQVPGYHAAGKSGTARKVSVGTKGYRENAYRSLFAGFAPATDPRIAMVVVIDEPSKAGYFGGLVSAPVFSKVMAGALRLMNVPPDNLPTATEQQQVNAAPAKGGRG

Structure (SMILES) | P. aeruginosa PBP3 Potency [1] | further results
NCCCN1CCN(C(=O)N[C@@H](C(=O)N[C@H]2Cc3ccc(F)c(C(=O)O)c3OB2O)c2c(F)cc(O)c(O)c2F)C(=O)C1=O (single isomer, unassigned) [Example 41] | D (D represents a potency <10 μM) | 
NCCN1CCN(C(=O)N[C@@H](C(=O)N[C@H]2Cc3ccc(F)c(C(=O)O)c3OB2O)c2c(F)cc(O)c(O)c2Cl)C(=O)C1=O (single isomer, unassigned) [Example 26] | D (D represents a potency <10 μM) | 
CCN1CCN(C(=O)NC(C(=O)N[C@H]2Cc3ccc(SCc4ccc(O)cc4)c(C(=O)O)c3OB2O)c2csc(N)n2)C(=O)C1=O (stereo partly drawn) [Example 55, (3R)-3-(2-(2-aminothiazol-4-yl)-2-(4-ethyl-2,3-dioxopiperazine-1-carboxamido)acetamido)-2-hydroxy-7-((4-hydroxybenzyl)thio)-3,4-dihydro-2H-benzo[e][1,2]oxaborinine-8-carboxylic acid] |  | MIC [2]: 32 to 64 µg/mL (≈ 47.9 to 95.7 µM); MIC [3]: > 128 µg/mL; MIC [4]: 0.5 to 1 µg/mL (≈ 0.748 to 1.5 µM)
CCN1CCN(C(=O)NC(C(=O)N[C@H]2Cc3ccc(F)c(C(=O)O)c3OB2O)c2cc(F)c(O)c(O)c2Cl)C(=O)C1=O (stereo partly drawn) [Example 42, (3R)-3-(2-(2-chloro-5-fluoro-3,4-dihydroxyphenyl)-2-(4-ethyl-2,3-dioxopiperazine-1-carboxamido)acetamido)-7-fluoro-2-hydroxy-3,4-dihydro-2H-benzo[e][1,2]oxaborinine-8-carboxylic acid] | D (D represents a potency <10 μM) | 
NCCN1CCN(C(=O)N[C@@H](C(=O)N[C@H]2Cc3ccc(F)c(C(=O)O)c3OB2O)c2c(F)cc(O)c(O)c2F)C(=O)C1=O (single isomer, unassigned) [Example 40] | D (D represents a potency <10 μM) | 
NCCCN1CCN(C(=O)N[C@@H](C(=O)N[C@H]2Cc3ccc(F)c(C(=O)O)c3OB2O)c2c(F)cc(O)c(O)c2Cl)C(=O)C1=O (single isomer, unassigned) [Example 27] | D (D represents a potency <10 μM) | 
CCN1CCN(C(=O)NC(C(=O)N[C@H]2Cc3ccc(S)c(C(=O)O)c3OB2O)c2csc(N)n2)C(=O)C1=O (stereo partly drawn) [Example 54, (3R)-3-(2-(2-aminothiazol-4-yl)-2-(4-ethyl-2,3-dioxopiperazine-1-carboxamido)acetamido)-2-hydroxy-7-mercapto-3,4-dihydro-2H-benzo[e][1,2]oxaborinine-8-carboxylic acid] |  | MIC [2]: > 128 µg/mL; MIC [3]: > 128 µg/mL; MIC [4]: 8 to 16 µg/mL (≈ 14.2 to 28.4 µM)
O=C(NC(C(=O)N[C@H]1Cc2ccc(F)c(C(=O)O)c2OB1O)c1ncc(O)cc1F)c1ccc(O)c(O)c1Cl (stereo partly drawn) [Example 8, (3R)-3-(2-(2-chloro-3,4-dihydroxybenzamido)-2-(3-fluoro-5-hydroxypyridin-2-yl)acetamido)-7-fluoro-2-hydroxy-3,4-dihydro-2H-benzo[e][1,2]oxaborinine-8-carboxylic acid] | D (D represents a potency <10 μM) | 
O=C(O)c1c(F)ccc2c1OB(O)[C@@H](NC(=O)[C@H](NC(=O)N1CCNC1=O)c1c(F)cc(O)c(O)c1Cl)C2 (single isomer, unassigned) [Example 34] | D (D represents a potency <10 μM) | 
CS(=O)(=O)N1CCN(C(=O)NC(C(=O)N[C@H]2Cc3ccc(F)c(C(=O)O)c3OB2O)c2ccc(O)c(O)c2Cl)C1=O (stereo partly drawn) [Example 23, (3R)-3-(2-(2-chloro-3,4-dihydroxyphenyl)-2-(3-(methylsulfonyl)-2-oxoimidazolidine-1-carboxamido)acetamido)-7-fluoro-2-hydroxy-3,4-dihydro-2H-benzo[e][1,2]oxaborinine-8-carboxylic acid] | D (D represents a potency <10 μM) | 
O=C(O)c1ccc(C(NC(=O)c2c(F)cc(O)c(O)c2Cl)C(=O)N[C@H]2Cc3ccc(F)c(C(=O)O)c3OB2O)cc1F (stereo partly drawn) [Example 71, (3R)-3-(2-(4-carboxy-3-fluorophenyl)-2-(2-chloro-6-fluoro-3,4-dihydroxybenzamido)acetamido)-7-fluoro-2-hydroxy-3,4-dihydro-2H-benzo[e][1,2]oxaborinine-8-carboxylic acid] | D (D represents a potency <10 μM) | 
NCCCN1CCN(C(=O)N[C@H](C(=O)N[C@H]2Cc3ccc(F)c(C(=O)O)c3OB2O)c2ccc(O)c(O)c2Cl)C(=O)C1=O (single isomer, unassigned) [Example 28] | B (B represents a potency between 30 μM and 500 μM inclusive) | 
O=C(NC(C(=O)N[C@H]1Cc2ccc(F)c(C(=O)O)c2OB1O)c1ncc(O)cc1F)c1ccnc(F)c1 (stereo partly drawn) [Example 53, (3R)-7-fluoro-3-(2-(3-fluoro-5-hydroxypyridin-2-yl)-2-(2-fluoroisonicotinamido)acetamido)-2-hydroxy-3,4-dihydro-2H-benzo[e][1,2]oxaborinine-8-carboxylic acid] | D (D represents a potency <10 μM) | MIC [2]: > 128 µg/mL; MIC [3]: > 128 µg/mL
NC(C(=O)N[C@H]1Cc2ccc(F)c(C(=O)O)c2OB1O)c1c(F)cc(O)c(O)c1Cl (stereo partly drawn) [Example 25, (3R)-3-(2-amino-2-(2-chloro-6-fluoro-3,4-dihydroxyphenyl)acetamido)-7-fluoro-2-hydroxy-3,4-dihydro-2H-benzo[e][1,2]oxaborinine-8-carboxylic acid] | B (B represents a potency between 30 μM and 500 μM inclusive) | 
O=C(NC(C(=O)N[C@H]1Cc2ccc(F)c(C(=O)O)c2OB1O)c1ncc(O)cc1F)c1c(F)cc(O)c(O)c1Cl (stereo partly drawn) [Example 10, (3R)-3-(2-(2-chloro-6-fluoro-3,4-dihydroxybenzamido)-2-(3-fluoro-5-hydroxypyridin-2-yl)acetamido)-7-fluoro-2-hydroxy-3,4-dihydro-2H-benzo[e][1,2]oxaborinine-8-carboxylic acid] | D (D represents a potency <10 μM) | 
O=C(Nc1ccc(O)c(O)c1Cl)NC(C(=O)N[C@H]1Cc2ccc(F)c(C(=O)O)c2OB1O)c1ncc(O)cc1F (stereo partly drawn) [Example 9, (3R)-3-(2-(3-(2-chloro-3,4-dihydroxyphenyl)ureido)-2-(3-fluoro-5-hydroxypyridin-2-yl)acetamido)-7-fluoro-2-hydroxy-3,4-dihydro-2H-benzo[e][1,2]oxaborinine-8-carboxylic acid] | D (D represents a potency <10 μM) | 
O=C(O)c1ccc(C(NC(=O)N2CCN(CCNC(=O)c3ccc(O)c(O)c3Cl)C(=O)C2=O)C(=O)N[C@H]2Cc3ccc(F)c(C(=O)O)c3OB2O)cc1F (stereo partly drawn) [Example 11, (3R)-3-(2-(4-carboxy-3-fluorophenyl)-2-(4-(2-(2-chloro-3,4-dihydroxybenzamido)ethyl)-2,3-dioxopiperazine-1-carboxamido)acetamido)-7-fluoro-2-hydroxy-3,4-dihydro-2H-benzo[e][1,2]oxaborinine-8-carboxylic acid] |  | MIC [2]: 2 to 4 µg/mL (≈ 2.58 to 5.17 µM); MIC [3]: 32 to 64 µg/mL (≈ 41.4 to 82.7 µM)
O=C(O)c1c(F)ccc2c1OB(O)[C@@H](NC(=O)C(NC(=O)N1CCN(CCF)C(=O)C1=O)c1c(F)cc(O)c(O)c1F)C2 (stereo partly drawn) [Example 37, (3R)-3-(2-(2,6-difluoro-3,4-dihydroxyphenyl)-2-(4-(2-fluoroethyl)-2,3-dioxopiperazine-1-carboxamido)acetamido)-7-fluoro-2-hydroxy-3,4-dihydro-2H-benzo[e][1,2]oxaborinine-8-carboxylic acid] | D (D represents a potency <10 μM) | 
CC(C)(C)[C@@H](NC(=O)N1CCN(CCNC(=O)c2c(F)cc(O)c(O)c2Cl)C(=O)C1=O)C(=O)N[C@H]1Cc2ccc(F)c(C(=O)O)c2OB1O [Example 80, (R)-3-((R)-2-(4-(2-(2-chloro-6-fluoro-3,4-dihydroxybenzamido)ethyl)-2,3-dioxopiperazine-1-carboxamido)-3,3-dimethylbutanamido)-7-fluoro-2-hydroxy-3,4-dihydro-2H-benzo[e][1,2]oxaborinine-8-carboxylic acid] | D (D represents a potency <10 μM) | 
CCN1CCN(C(=O)NC(C(=O)N[C@H]2Cc3ccc(F)c(C(=O)O)c3OB2O)c2c(F)cc(O)c(O)c2F)C(=O)C1=O (stereo partly drawn) [Example 36, (3R)-3-(2-(2,6-difluoro-3,4-dihydroxyphenyl)-2-(4-ethyl-2,3-dioxopiperazine-1-carboxamido)acetamido)-7-fluoro-2-hydroxy-3,4-dihydro-2H-benzo[e][1,2]oxaborinine-8-carboxylic acid] | D (D represents a potency <10 μM) | 
CS(=O)(=O)N1CCN(C(=O)N[C@@H](C(=O)N[C@H]2Cc3ccc(F)c(C(=O)O)c3OB2O)c2c(F)cc(O)c(O)c2Cl)C1=O (single isomer, unassigned) [Example 35] | D (D represents a potency <10 μM) | 
O=C(O)c1ccc(C(NC(=O)c2ccc(O)c(O)c2Cl)C(=O)N[C@H]2Cc3cccc(C(=O)O)c3OB2O)cc1F (stereo partly drawn) [Example 7, (3R)-3-(2-(4-carboxy-3-fluorophenyl)-2-(2-chloro-3,4-dihydroxybenzamido)acetamido)-2-hydroxy-3,4-dihydro-2H-benzo[e][1,2]oxaborinine-8-carboxylic acid] | D (D represents a potency <10 μM) | 
